One may read the IC50 as the concentration that gives 50% inhibition. High values mean lower potency, low ones higher potency.

The target of the experiment is TACE (Homo sapiens (Human), UniProt P78536). The experiment is described as follows: TACE inhibition test (in vitro). Type of experiment: biochemical. As to conditions: fluorescent synthetic substrate, 37° C., 1.5 hours. On the procedure: The nucleotide sequence of TACE has been reported by Moss et al. (Moss, M. L. et al., Nature 1997, 385, 733-736). Accordingly, the cDNA of TACE was obtained according to the prescribed method from THP-1 cells or the like, and then incorporated the cDNA into an expression vector. Next, this vector was transformed into mammalian cells or insect cells, and TACE expression was obtained.
Sequence of TACE (P78536 215-824): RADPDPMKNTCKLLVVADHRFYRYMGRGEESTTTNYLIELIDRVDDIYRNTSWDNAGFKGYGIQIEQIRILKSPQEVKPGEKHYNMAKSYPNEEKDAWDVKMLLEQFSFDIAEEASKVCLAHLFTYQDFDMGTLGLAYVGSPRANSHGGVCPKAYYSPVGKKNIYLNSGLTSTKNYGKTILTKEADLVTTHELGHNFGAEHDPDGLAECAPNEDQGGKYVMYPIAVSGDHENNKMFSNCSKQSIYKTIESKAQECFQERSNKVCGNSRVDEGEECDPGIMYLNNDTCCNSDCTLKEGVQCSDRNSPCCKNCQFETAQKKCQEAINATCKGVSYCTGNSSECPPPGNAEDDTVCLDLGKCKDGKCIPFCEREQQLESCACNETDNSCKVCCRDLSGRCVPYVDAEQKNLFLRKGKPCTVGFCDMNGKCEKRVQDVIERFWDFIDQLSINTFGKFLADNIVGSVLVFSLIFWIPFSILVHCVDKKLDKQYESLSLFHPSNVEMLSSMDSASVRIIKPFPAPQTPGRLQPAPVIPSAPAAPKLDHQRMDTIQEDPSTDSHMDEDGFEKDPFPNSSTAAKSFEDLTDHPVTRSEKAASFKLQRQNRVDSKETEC
The TACE inhibition test was carried out by measuring TACE activity in the presence and the absence of the test substance using the thus-obtained TACE as an enzyme, and a fluorescent synthetic substrate Nma(N-methylanthranilic acid)-Leu-Ala-Gln-Ala-Val-Arg-Ser-Ser-Lys(Dnp(dinitrophenyl))-D-Arg-NH2 (SEQ ID NO: 1) including the TACE-cleaved sequence of a membrane-bound TNF as a substrate. The TACE inhibition test method is shown below.
Namely, 90 μL of an enzyme solution prepared with an assay buffer A (50 mM tris-hydrochloric acid buffer (pH 7.5) including 200 mM sodium chloride, 5 mM calcium chloride, 10 μM zinc sulfate, and 2 mg/mL bovine serum albumin) and 90 μL of a fluorescent synthetic substrate prepared with an assay buffer B (50 mM tris-hydrochloric acid buffer (pH 7.5) including 200 mM sodium chloride, 5 mM calcium chloride, 10 μM zinc sulfate, and 0.05% PLURONIC F-68) were mixed together, and reacted at 37° C. for 1.5 hours. Enzyme activity was then determined by measuring with a fluorescence intensity meter (Labsystems, Fluoroskan Ascent) at an excitation wavelength of 355 nm and a measurement wavelength of 460 nm.
From the enzyme activity in the presence or the absence of the test substance, the inhibition rate was determined, and the 50% inhibitiory concentration (IC50) of the test substance was calculated.
With `COc1cc(C2(Cn3cccc(C)c3=O)NC(=O)NC2=O)cc(F)c1F` (centres unmarked) [Compound I-127], the half-maximal inhibitory concentration (IC50) was < 100 nM. For `Cc1cc(C2(Cn3cccc(C)c3=O)NC(=O)NC2=O)ccc1OC1CCCC1` (centres unmarked) [Compound I-39, 5-[4-(cyclopentyloxy)-3-methylphenyl]-5-[(3-methyl-2-oxopyridin-1(2H)-yl)methyl]imidazolidine-2,4-dione], the half-inhibitory concentration (IC50) was < 100 nM.

In the case of `N#Cc1ccc(C2(Cn3cccc(F)c3=O)NC(=O)NC2=O)cc1` (centres unmarked) [Compound I-134], the IC50 is < 100 nM. As for `O=C1NC(=O)C(Cn2cccc(Cl)c2=O)(c2ccc(F)cc2)N1` (centres unmarked) [Compound I-136], the figure is < 100 nM; as for `COc1ccc(-c2ccc(C3(Cn4cccc(C)c4=O)NC(=O)NC3=O)cc2)cc1` (centres unmarked) [Compound I-72], < 100 nM; as for `COc1cccc(Oc2ccc(C3(Cn4cccc(C)c4=O)NC(=O)NC3=O)cc2)c1` (centres unmarked) [Compound I-83], < 100 nM.

`Cc1cccn(CC2(c3ccc(S(C)(=O)=O)cc3)NC(=O)NC2=O)c1=O` (centres unmarked) [Compound I-25, 5-[(3-methyl-2-oxopyridin-1(2H)-yl)methyl]-5-[4-(methylsulfonyl)phenyl]imidazolidine-2,4-dione]: the half-maximal inhibitory concentration (IC50) was < 100 nM. For `CCc1ccc(C2(Cn3cccc(C)c3=O)NC(=O)NC2=O)cc1` (centres unmarked) [Compound I-116] the value was < 100 nM. As for `Cc1ccccc1Oc1ccc(C2(Cn3cccc(C)c3=O)NC(=O)NC2=O)cc1` (centres unmarked) [Compound I-35, 5-[(3-methyl-2-oxopyridin-1(2H)-yl)methyl]-5-[4-(o-tolyloxy)phenyl]imidazolidine-2,4-dione], the figure is < 100 nM; as for `Cc1cccn(CC2(c3ccc(Oc4ccccc4F)c(F)c3)NC(=O)NC2=O)c1=O` (centres unmarked) [Compound I-104], < 100 nM.

Turning to `Cc1cccn(CC2(c3ccc4c(c3)OCCCO4)NC(=O)NC2=O)c1=O` (centres unmarked) [Compound I-105], the IC50 was < 100 nM. For `COc1ccc(C)cc1C1(Cn2cccc(C)c2=O)NC(=O)NC1=O` (centres unmarked) [Compound I-76] the value was 100 to 1000 nM; for `Cc1cccn(CC2(c3ccc(OC(C)C)cc3)NC(=O)NC2=O)c1=O` (centres unmarked) [Compound I-120], < 100 nM; for `O=C1NC(=O)C(Cn2ccccc2=O)(c2ccc(F)c(F)c2)N1` (centres unmarked) [Compound I-155], < 100 nM. For `C=C(C)c1ccc(C2(Cn3cccc(C)c3=O)NC(=O)NC2=O)cc1` (centres unmarked) [Compound I-108] the value was < 100 nM; for `Cc1cccn(CC2(c3ccc4c(c3)OCO4)NC(=O)NC2=O)c1=O` (centres unmarked) [Compound I-65], < 100 nM; for `Cc1cccn(CC2(c3cccnc3)NC(=O)NC2=O)c1=O` (centres unmarked) [Compound I-8, 5-[(3-methyl-2-oxopyridin-1(2H)-yl)methyl]-5-(pyridin-3-yl)imidazolidine-2,4-dione], < 100 nM. As for `COc1ccc(C2(Cn3ccccc3=O)NC(=O)NC2=O)cc1` (centres unmarked) [Compound I-47, 5-(4-methoxyphenyl)-5-[(2-oxopyridin-1(2H)-yl)methyl]imidazolidine-2,4-dione], the 50% inhibitory concentration (IC50) is < 100 nM. For `Cc1cccn(CC2(c3ccncc3)NC(=O)NC2=O)c1=O` (centres unmarked) [Compound I-55] the value was < 100 nM; for `O=C1NC(=O)C(Cn2cccc(Cl)c2=O)(c2ccccc2)N1` (centres unmarked) [Compound I-50, 5-[(3-chloro-2-oxopyridin-1(2H)-yl)methyl]-5-phenylimidazolidine-2,4-dione], < 100 nM. For `COc1ccccc1C1(Cn2cccc(C)c2=O)NC(=O)NC1=O` (centres unmarked) [Compound I-60] the value was 100 to 1000 nM; for `Cc1cccn(CC2(c3ccccn3)NC(=O)NC2=O)c1=O` (centres unmarked) [Compound I-7, 5-[(3-methyl-2-oxopyridin-1(2H)-yl)methyl]-5-(pyridin-2-yl)imidazolidine-2,4-dione], < 100 nM. Consider `Cc1cccn(CC2(c3ccc(OC4CCCC4)cc3)NC(=O)NC2=O)c1=O` (centres unmarked) [Compound I-124], for which the IC50 is < 100 nM. For the compound `Cc1cccn(CC2(c3cccc(-c4ccccc4)c3)NC(=O)NC2=O)c1=O` (centres unmarked) [Compound I-96], the IC50 is < 100 nM. With `O=C1NC(=O)C(Cn2cccc(F)c2=O)(c2ccc(F)cc2)N1` (centres unmarked) [Compound I-48, 5-[(3-fluoro-2-oxopyridin-1(2H)-yl)methyl]-5-(4-fluorophenyl)-imidazolidine-2,4-dione], the IC50 is < 100 nM. For `COc1ccccc1-c1ccc(C2(Cn3cccc(C)c3=O)NC(=O)NC2=O)cc1` (centres unmarked) [Compound I-74] the value was < 100 nM.

Consider `Cc1cccn(CC2(c3cccc(C(F)(F)F)c3)NC(=O)NC2=O)c1=O` (centres unmarked) [Compound I-19], for which the IC50 was < 100 nM. For `O=C1NC(=O)C(Cn2cccc(C(F)(F)F)c2=O)(c2ccccc2)N1` (centres unmarked) [Compound I-140] the value was < 100 nM. For `O=C1NC(=O)C(Cn2cccc(F)c2=O)(c2ccc(Cc3ccccc3)cc2)N1` (centres unmarked) [Compound I-152] the value was < 100 nM. As for `Cc1cccn(CC2(c3ccc(Oc4ccc(Cl)cc4)cc3)NC(=O)NC2=O)c1=O` (centres unmarked) [Compound I-82], the figure is < 100 nM. With `O=C1NC(=O)C(Cn2cccc(F)c2=O)(c2ccc(F)c(F)c2)N1` (centres unmarked) [Compound I-145], the IC50 is < 100 nM. For `Cc1cccn(CC2(c3ccc(C(C)(C)C)cc3)NC(=O)NC2=O)c1=O` (centres unmarked) [Compound I-17, 5-[4-(tert-butyl)phenyl]-5-[(3-methyl-2-oxopyridin-1(2H)-yl)methyl]imidazolidine-2,4-dione] the value was < 100 nM. For `COCOc1ccc(C2(Cn3cccc(C)c3=O)NC(=O)NC2=O)cc1` (centres unmarked) [Compound I-13, 5-[4-(methoxymethoxy)phenyl]-5-[(3-methyl-2-oxopyridin-1(2H)-yl)methyl]imidazolidine-2,4-dione] the value was < 100 nM.

For the compound `Cc1cccn(CC2(c3ccc(C#N)cc3)NC(=O)NC2=O)c1=O` (centres unmarked) [Compound I-3, 4-{4-[(3-methyl-2-oxopyridin-1(2H)-yl)methyl]-2,5-dioxoimidazolidine-4-yl}benzonitrile], the concentration for half-maximal inhibition (IC50) was < 100 nM. On to `Cc1cccn(CC2(c3ccc(Oc4cccnc4)cc3)NC(=O)NC2=O)c1=O` (centres unmarked) [Compound I-101], for which the 50% inhibitory concentration (IC50) is < 100 nM.

On to `O=C1NC(=O)C(Cn2cccc(Br)c2=O)(c2ccc(F)c(F)c2)N1` (centres unmarked) [Compound I-147], for which the IC50 was < 100 nM. For `Cc1cccn(CC2(c3ccc(CCC4CCCCC4)cc3)NC(=O)NC2=O)c1=O` (centres unmarked) [Compound I-118] the value was 100 to 1000 nM; for `Cc1noc(C)c1-c1ccc(C2(Cn3cccc(C)c3=O)NC(=O)NC2=O)cc1` (centres unmarked) [Compound I-90], < 100 nM. As for `Cc1cccn(CC2(c3cccc(OC(F)(F)F)c3)NC(=O)NC2=O)c1=O` (centres unmarked) [Compound I-67], the figure is < 100 nM; as for `Cc1cccn(CC2(c3ccc(Oc4ccccc4)c(F)c3)NC(=O)NC2=O)c1=O` (centres unmarked) [Compound I-87], < 100 nM; as for `Cc1cccn(CC2(c3cccc(F)c3)NC(=O)NC2=O)c1=O` (centres unmarked) [Compound I-28, 5-(3-fluorophenyl)-5-[(3-methyl-2-oxopyridin-1(2H)-yl)methyl]imidazolidine-2,4-dione], < 100 nM. For `O=C1NC(=O)C(Cn2cccc(Br)c2=O)(c2ccccc2)N1` (centres unmarked) [Compound I-139] the value was < 100 nM; for `COc1ccc(C2(Cn3cccc(Cl)c3=O)NC(=O)NC2=O)cc1` (centres unmarked) [Compound I-137], < 100 nM. As to `Cc1cccn(CC2(c3ccc(Sc4ccccc4)c(F)c3)NC(=O)NC2=O)c1=O` (centres unmarked) [Compound I-103], the half-maximal inhibitory concentration (IC50) was < 100 nM.

(Values after patent publication US10000476B2, “Pyridone derivative, pharmaceutical containing the same and methods of use thereof” (KAKEN PHARMACEUTICAL CO., LTD., priority 2011, dated 2018).)
